Measurements taken from PubChem BioAssay (NCI).
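Exposure lasted 48 hours, with cells grown in 96-well plates and compounds tested at five concentrations. GI50 is the concentration that inhibits growth by half. Definition used: TGI = concentration required for complete inhibition of growth.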

Legend:
Test in all cases: growth of human tumour cells (NCI), 48 h
RPMI-8226 leukemia = test system: RPMI-8226 leukemia
MALME-3M melanoma = test system: MALME-3M melanoma
SK-MEL-28 melanoma = test system: SK-MEL-28 melanoma
SN12C renal = test system: SN12C renal
T-47D breast = test system: T-47D breast
RXF 393 renal = test system: RXF 393 renal
NCI-H226 lung = test system: NCI-H226 lung
COLO 205 colon = test system: COLO 205 colon
NCI-H460 lung = test system: NCI-H460 lung
HS 578T breast = test system: HS 578T breast
UACC-62 melanoma = test system: UACC-62 melanoma
SNB-75 CNS = test system: SNB-75 CNS
U251 CNS = test system: U251 CNS
HT29 colon = test system: HT29 colon
A498 renal = test system: A498 renal
SF-539 CNS = test system: SF-539 CNS
MDA-MB-231 breast = test system: MDA-MB-231 breast
HL-60(TB) leukemia = test system: HL-60(TB) leukemia
MOLT-4 leukemia = test system: MOLT-4 leukemia
SNB-19 CNS = test system: SNB-19 CNS
SK-MEL-2 melanoma = test system: SK-MEL-2 melanoma
UACC-257 melanoma = test system: UACC-257 melanoma
HCT-15 colon = test system: HCT-15 colon
CCRF-CEM leukemia = test system: CCRF-CEM leukemia
M14 melanoma = test system: M14 melanoma
NCI-H522 lung = test system: NCI-H522 lung
UO-31 renal = test system: UO-31 renal
OVCAR-8 ovarian = test system: OVCAR-8 ovarian
HCT-116 colon = test system: HCT-116 colon
KM12 colon = test system: KM12 colon
SF-295 CNS = test system: SF-295 CNS
SR leukemia = test system: SR leukemia
A549 NSCLC = test system: A549 NSCLC
NCI/ADR-RES ovarian = test system: NCI/ADR-RES ovarian
OVCAR-3 ovarian = test system: OVCAR-3 ovarian
K-562 leukemia = test system: K-562 leukemia
SW-620 colon = test system: SW-620 colon
TK-10 renal = test system: TK-10 renal
MCF7 breast = test system: MCF7 breast
LOX IMVI melanoma = test system: LOX IMVI melanoma
OVCAR-4 ovarian = test system: OVCAR-4 ovarian
OVCAR-5 ovarian = test system: OVCAR-5 ovarian
786-0 renal = test system: 786-0 renal
ACHN renal = test system: ACHN renal
HOP-92 NSCLC = test system: HOP-92 NSCLC
DU-145 prostate = test system: DU-145 prostate
SK-OV-3 ovarian = test system: SK-OV-3 ovarian
CAKI-1 renal = test system: CAKI-1 renal
MDA-MB-435 = test system: MDA-MB-435
NCI-H23 lung = test system: NCI-H23 lung
HOP-62 NSCLC = test system: HOP-62 NSCLC
SK-MEL-5 melanoma = test system: SK-MEL-5 melanoma
IGROV1 ovarian = test system: IGROV1 ovarian
PC-3 prostate = test system: PC-3 prostate
EKVX NSCLC = test system: EKVX NSCLC
SF-268 CNS = test system: SF-268 CNS
BT-549 breast = test system: BT-549 breast

COc1ccc(N=c2nc3sc4cc(Cl)ccc4n3c(N)c2C#N)cc1
GI50 (RPMI-8226 leukemia): 25 µM | TGI (RPMI-8226 leukemia): > 72.6 µM | GI50 (MALME-3M melanoma): 2.25 µM | TGI (MALME-3M melanoma): 7.42 µM | GI50 (SK-MEL-28 melanoma): 2.92 µM | TGI (SK-MEL-28 melanoma): 22.9 µM | GI50 (SN12C renal): 15.3 µM | TGI (SN12C renal): > 100 µM | GI50 (T-47D breast): 39.1 µM | TGI (T-47D breast): > 100 µM | GI50 (RXF 393 renal): 5.27 µM | TGI (RXF 393 renal): > 100 µM | GI50 (NCI-H226 lung): 1.92 µM | TGI (NCI-H226 lung): 7.99 µM | GI50 (COLO 205 colon): 2.39 µM | TGI (COLO 205 colon): 6.47 µM | GI50 (NCI-H460 lung): 21.1 µM | TGI (NCI-H460 lung): > 100 µM | GI50 (HS 578T breast): 1.27 µM | GI50 (UACC-62 melanoma): 3.35 µM | TGI (UACC-62 melanoma): > 38.5 µM | GI50 (SNB-75 CNS): 3.4 µM | TGI (SNB-75 CNS): > 100 µM | GI50 (U251 CNS): 4.38 µM | TGI (U251 CNS): > 100 µM | GI50 (HT29 colon): 1.31 µM | TGI (HT29 colon): > 100 µM | GI50 (A498 renal): 2.64 µM | TGI (A498 renal): 7.05 µM | GI50 (SF-539 CNS): 9.71 µM | TGI (SF-539 CNS): > 100 µM | GI50 (MDA-MB-231 breast): 3.12 µM | TGI (MDA-MB-231 breast): 16.2 µM | GI50 (HL-60(TB) leukemia): 11.4 µM | TGI (HL-60(TB) leukemia): > 94.9 µM | GI50 (MOLT-4 leukemia): 7.74 µM | TGI (MOLT-4 leukemia): > 76.5 µM | GI50 (SNB-19 CNS): 20.7 µM | TGI (SNB-19 CNS): > 100 µM | GI50 (SK-MEL-2 melanoma): 2.8 µM | TGI (SK-MEL-2 melanoma): 34.7 µM | GI50 (UACC-257 melanoma): 35.4 µM | TGI (UACC-257 melanoma): > 100 µM | GI50 (HCT-15 colon): 5.59 µM | TGI (HCT-15 colon): > 31.1 µM | GI50 (CCRF-CEM leukemia): 11 µM | TGI (CCRF-CEM leukemia): > 100 µM | GI50 (M14 melanoma): 4.45 µM | TGI (M14 melanoma): > 100 µM | GI50 (NCI-H522 lung): 20.6 µM | TGI (NCI-H522 lung): > 100 µM | GI50 (UO-31 renal): 18.3 µM | TGI (UO-31 renal): > 100 µM | GI50 (OVCAR-8 ovarian): 5.05 µM | TGI (OVCAR-8 ovarian): > 100 µM | GI50 (HCT-116 colon): 6.5 µM | TGI (HCT-116 colon): > 100 µM | GI50 (KM12 colon): 2.47 µM | TGI (KM12 colon): 6.89 µM | GI50 (SF-295 CNS): 2.51 µM | TGI (SF-295 CNS): 23.1 µM | GI50 (SR leukemia): 8.49 µM | TGI (SR leukemia): > 84.8 µM | GI50 (A549 NSCLC): 15.4 µM | TGI (A549 NSCLC): > 100 µM | GI50 (NCI/ADR-RES ovarian): 2.95 µM | TGI (NCI/ADR-RES ovarian): 9.08 µM | GI50 (OVCAR-3 ovarian): 9.66 µM | TGI (OVCAR-3 ovarian): 44.8 µM | GI50 (K-562 leukemia): 22.5 µM | TGI (K-562 leukemia): > 100 µM | GI50 (SW-620 colon): 3.69 µM | TGI (SW-620 colon): 29.7 µM | GI50 (TK-10 renal): 4.61 µM | TGI (TK-10 renal): 45.5 µM | GI50 (MCF7 breast): 1.92 µM | TGI (MCF7 breast): 21.5 µM | GI50 (LOX IMVI melanoma): 2.06 µM | TGI (LOX IMVI melanoma): 5.07 µM | GI50 (OVCAR-4 ovarian): 3.51 µM | TGI (OVCAR-4 ovarian): > 100 µM | GI50 (OVCAR-5 ovarian): 5.21 µM | TGI (OVCAR-5 ovarian): > 100 µM | GI50 (786-0 renal): 2.43 µM | TGI (786-0 renal): 5.47 µM | GI50 (ACHN renal): 8.66 µM | TGI (ACHN renal): > 100 µM | GI50 (HOP-92 NSCLC): 26.5 µM | TGI (HOP-92 NSCLC): > 88.6 µM | GI50 (DU-145 prostate): 35.8 µM | TGI (DU-145 prostate): > 100 µM | GI50 (SK-OV-3 ovarian): 5.9 µM | TGI (SK-OV-3 ovarian): > 100 µM | GI50 (CAKI-1 renal): 8.05 µM | TGI (CAKI-1 renal): 78.3 µM | GI50 (MDA-MB-435): 3.98 µM | TGI (MDA-MB-435): > 100 µM | GI50 (NCI-H23 lung): 2.49 µM | TGI (NCI-H23 lung): 20.5 µM | GI50 (HOP-62 NSCLC): 4.84 µM | TGI (HOP-62 NSCLC): > 100 µM | GI50 (SK-MEL-5 melanoma): 1.64 µM | TGI (SK-MEL-5 melanoma): 3.42 µM | GI50 (IGROV1 ovarian): 3.48 µM | TGI (IGROV1 ovarian): > 66.1 µM | GI50 (PC-3 prostate): 15.4 µM | TGI (PC-3 prostate): > 100 µM | GI50 (EKVX NSCLC): 2.45 µM | TGI (EKVX NSCLC): > 100 µM | GI50 (SF-268 CNS): 4.29 µM | TGI (SF-268 CNS): > 100 µM | GI50 (BT-549 breast): 5.17 µM | TGI (BT-549 breast): 98 µM
